In paper PMC13129453, “Targeting the US21 viroporin of human cytomegalovirus by calcium channel blockers as a new antiviral strategy” (Current Research in Microbial Sciences, 2026):
Where “and” joins values, the source holds several entries; their conditions need not be identical. Equal values may be shown once. Read-outs that look alike come from different tables or passages of the source.

What was measured:
HCMV TRwt [1] = assay: Focus-forming reduction assay (FFRA), HCMV TRwt; format: cell-based, Human cytomegalovirus; conditions: for EC50 / EC90: Human betaherpesvirus 5, hT-HFF, FFRA, 96 h p.i.; for SI: hT-HFF, ratio between CC50 and EC50
Protocol: (§1) The antiviral activity of CCBs was evaluated against VR1814 and TRwt by means of the focus-forming reduction assay (FFRA) procedure. Briefly, hT-HFFs were seeded on 96-well plates (20,000 cells/well) and, after 24 h, treated with different concentrations of compounds (maximum concentration 20 μM, or 100 μM for felodipine) 1 h prior to and during viral infection (50 PFU/well). Control HCMV-infected cells were exposed to vehicle DMSO at 0.04%, or 0.2% for felodipine). After virus adsorption (2 h at 37 °C), virus inoculum was removed and infected cell cultures were incubated in medium containing the corresponding compounds plus 1.2% (w/v) methylcellulose (Merck) and 5% (v/v) FBS. At 96 h post infection (p.i.), cell monolayers were fixed and subjected to indirect immunoperoxidase staining (IPA) with the HCMV IEA mAb (diluted 1:150). Viral foci were microscopically counted, and the mean plaque counts for each drug concentration were expressed as a percentage of the mean plaque counts of control virus (DMSO). GraphPad Prism software was used to determine the concentration of compounds producing 50 and 90% reductions in viral titers (EC50 and EC90).

HCMV TRUS21stop = assay: microbe, parasite or virus in culture; format: cell-based, Human cytomegalovirus
pUS21 = biological target: T1, pUS21 (Human cytomegalovirus, UniProt P09723); format: cell-based
T1 construct: expressed in transfected cells; host or cells: T-REx-U2OS-US21-HA (human osteosarcoma U2OS, stably transfected, tetracycline-inducible)
T1 sequence (P09723 whole entry): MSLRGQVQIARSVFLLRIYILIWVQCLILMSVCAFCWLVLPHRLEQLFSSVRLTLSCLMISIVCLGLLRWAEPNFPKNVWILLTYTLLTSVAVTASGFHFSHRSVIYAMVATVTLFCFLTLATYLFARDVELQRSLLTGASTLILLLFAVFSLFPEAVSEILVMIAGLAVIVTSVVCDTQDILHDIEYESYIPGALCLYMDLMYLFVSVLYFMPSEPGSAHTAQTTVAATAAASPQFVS
Protocol: Calcium measurement was determined applying the Ca^2+ add back protocol as previously described ([Luganini et al., 2023]). Briefly, non-induced (NI) or induced (I) T-REx-U2OS-US21-HA cell lines for 48 h with tetracycline, plated at a density of 5000 cells/cm^2 on glass coverslips, were loaded (45 min at 37 °C) with 2 μM Fura-2 AM (Invitrogen, Waltham, MA, USA) and excited at two alternating wavelengths: 340 and 380 nm. Fluorescence emission was captured using a Nikon Eclipse TE-2000S inverted microscope equipped with the MetaFluor Imaging System (Molecular Devices, San Jose, CA, USA). Ratiometric cytosolic Ca^2+ ([Ca^2+]c) quantification was expressed as the ratio (R) of fluorescence emitted at 510 nm for the two excitation wavelengths. Images were acquired every 3 s. Ca^2+ imaging analysis was conducted by peak amplitude quantification using Clampfit 11.1 (Axon pClamp, Molecular Devices). Responses with a ΔR340/380 > 0.05 were taken in account. To assess the ER Ca^2+ content in T-REx-U2OS-US21-HA NI or I cells, depletion of the ER Ca^2+ pool was triggered using IP3mix in the absence of extracellular Ca^2+ (0 Ca^2+). IP3mix consisted of thapsigargin (2 μM), histamine (100 μM), and ATP (100 μM). The experiments were performed in acute treatment in presence of CCBs or DMSO, as control at 0.01%.

HCMV VR1814 [2] = assay: Focus-forming reduction assay (FFRA), HCMV VR1814; format: cell-based, Human cytomegalovirus
HCMV TRwt [3] = assay: Focus-forming reduction assay (FFRA), HCMV TRwt; format: cell-based, Human cytomegalovirus
[4] = Cell cytotoxicity assay (MTT), hT-HFFs; format: cell-based; conditions: human; for CC50 at 5 days: hT-HFFs, hT-HFF, MTT, five days of treatment
Protocol: (§2) The effect of test compounds on cell viability was determined in hT-HFFs, HMVECs and T-REx-U2OS-US21-HA cells seeded in p96-well (12,000 cells/well). After 24 h, cells were treated with compounds at concentrations starting from 300 μM and then serially diluted in culture medium, or with DMSO alone starting from 0.6% v/v as the vehicle control. For cell viability of drug combination studies, the control with DMSO was from 0.07%.

[5] = Cell cytotoxicity assay (MTT), HMVECs; format: cell-based; conditions: human; for CC50 at 5 days: HMVECs, HMVEC, MTT, five days of treatment
Protocol: as §2

HCMV VR1814 [6] = assay: Focus-forming reduction assay (FFRA), HCMV VR1814; format: cell-based, Human cytomegalovirus; conditions: hT-HFF; for EC50 / EC90: Human betaherpesvirus 5, VR1814, FFRA, 96 h p.i.; for SI: VR1814, ratio between CC50 and EC50
Protocol: as §1

[7] = Human betaherpesvirus 5, hT-HFF, TRUS21stop, FFRA, 96 h p.i., read-out: EC50
[8] = Human betaherpesvirus 5, HMVEC, 96 h
[9] = Human betaherpesvirus 5, hT-HFF, TRUS21stop, FFRA, 96 h p.i., read-out: EC90
[10] = hT-HFF, TRUS21stop, ratio between CC50 and EC50
[11] = HMVEC, VR1814, ratio between CC50 and EC50
[12] = Human betaherpesvirus 5, HMVEC, VR1814, FFRA, 96 h p.i., read-out: EC50
[13] = Human betaherpesvirus 5, HMVEC, VR1814, FFRA, 96 h p.i., read-out: EC90
[14] = HMVEC, TRwt, ratio between CC50 and EC50
[15] = Human betaherpesvirus 5, HMVEC, TRwt, FFRA, 96 h p.i., read-out: EC50
[16] = Human betaherpesvirus 5, HMVEC, TRwt, FFRA, 96 h p.i., read-out: EC90

With `CCOC(=O)C1=C(C)NC(C)=C(C(=O)OC)C1c1cccc(Cl)c1Cl` (stereo not shown) [felodipine] the EC50 (HCMV TRwt [1]) was 19.4 µM and the EC50 (HCMV TRUS21stop; [7]) was 19.4 µM.

In the case of `COC(=O)C1=C(C)NC(C)=C(C(=O)OCCCN2CCC(c3ccccc3)(c3ccccc3)CC2)[C@H]1c1cccc([N+](=O)[O-])c1` [Niguldipine, niguldipine], the “Ca2+-conducting activity of pUS21 (Ca2+ release from the ER after IP3mix)” value (shortened to “Ca2+-conducting activity of pUS21”) (pUS21) is reported as “can hamper the Ca^2+-mobilizing activity of pUS21”, the SI (HCMV TRUS21stop) is reported as 68.70 and the EC50 (HCMV TRUS21stop; Human betaherpesvirus 5, 96 h) is reported as 3.51 ± 0.22 µM. The EC90 (HCMV TRUS21stop; Human betaherpesvirus 5, 96 h) was 13 ± 0.63 µM, the SI (HCMV VR1814 [2]) was 67.93 and 76.31 and the EC50 (HCMV VR1814 [2]; Human betaherpesvirus 5, 96 h) was 3.16 ± 0.64 µM. For the same compound, the EC90 (HCMV VR1814 [2]; Human betaherpesvirus 5, 96 h) was 15 ± 0.48 µM, the EC50 (HCMV VR1814 [2]; [8]) was 3.02 ± 0.16 µM and the EC90 (HCMV VR1814 [2]; [8]) was 12.7 ± 0.16 µM. The SI (HCMV TRwt [3]) was 191.39 and 178.40, the EC50 (HCMV TRwt [3]; Human betaherpesvirus 5, 96 h) was 1.26 ± 0.31 µM and the EC90 (HCMV TRwt [3]; Human betaherpesvirus 5, 96 h) was 7.33 ± 2.54 µM. The EC50 (HCMV TRwt [3]; [8]) was 1.15 ± 0.29 µM, the EC90 (HCMV TRwt [3]; [8]) was 7.24 ± 0.59 µM and the CC50 [4] was 241 ± 23.9 µM. It also gave a CC50 [5] of 205 ± 23.3 µM.

In the case of `CC1=C(C(=O)OCCN(Cc2ccccc2)c2ccccc2)C(c2cccc([N+](=O)[O-])c2)C(P2(=O)OCC(C)(C)CO2)=C(C)N1` (stereo not shown) [Efonidipine, efonidipine], the EC50 (HCMV TRwt [1]) is reported as 3.18 ± 0.07 µM, the EC90 (HCMV TRwt [1]) is reported as 14.2 ± 1.67 µM and the SI (HCMV TRwt [1]) is reported as 106.82. For the same compound, the “Ca2+-conducting activity of pUS21” value (pUS21) was “can hamper the Ca^2+-mobilizing activity of pUS21”, the EC50 (HCMV TRUS21stop; [7]) was 7.11 ± 0.05 µM and the EC90 (HCMV TRUS21stop; [9]) was over 20 µM. It also gave an SI (HCMV TRUS21stop; [10]) of 47.77, an SI (HCMV VR1814 [2]; [11]) of 82.28 and an EC50 (HCMV VR1814 [2]; [12]) of 3.59 ± 0.67 µM. It also gave an EC90 (HCMV VR1814 [2]; [13]) of 19.5 ± 0.72 µM, an EC50 (HCMV VR1814 [6]) of 3.04 ± 0.23 µM and an EC90 (HCMV VR1814 [6]) of 13.6 ± 2.46 µM. The SI (HCMV VR1814 [6]) was 111.74, the SI (HCMV TRwt [3]; [14]) was 83.21 and the EC50 (HCMV TRwt [3]; [15]) was 3.55 ± 0.13 µM. It also gave an EC90 (HCMV TRwt [3]; [16]) of 6.58 ± 0.91 µM, a CC50 at 5 days [4] of 340 ± 20.1 µM and a CC50 at 5 days [5] of 295 ± 11 µM.

In the case of `CC1=C(C(=O)OC(C)C)C(c2cccc([N+](=O)[O-])c2)C(C(=O)OC2CN(C(c3ccccc3)c3ccccc3)C2)=C(N)N1` (stereo not shown) [Azelnidipine, azelnidipine], the EC50 (HCMV TRwt [1]) is reported as 1.53 ± 0.32 µM, the EC90 (HCMV TRwt [1]) is reported as 12.1 ± 0.27 µM and the SI (HCMV TRwt [1]) is reported as 125.50. The “Ca2+-conducting activity of pUS21” value (pUS21) was “can hamper the Ca^2+-mobilizing activity of pUS21”, the EC50 (HCMV TRUS21stop; [7]) was 5.46 ± 0.17 µM and the EC90 (HCMV TRUS21stop; [9]) was 19.36 ± 0.06 µM. The SI (HCMV TRUS21stop; [10]) was 35.16, the SI (HCMV VR1814 [2]; [11]) was 110.37 and the EC50 (HCMV VR1814 [2]; [12]) was 3.09 ± 0.46 µM. For the same compound, the EC90 (HCMV VR1814 [2]; [13]) was 19 ± 0.27 µM, the EC50 (HCMV VR1814 [6]) was 2.96 ± 0.53 µM and the EC90 (HCMV VR1814 [6]) was 14.7 ± 0.39 µM. The SI (HCMV VR1814 [6]) was 64.87, the SI (HCMV TRwt [3]; [14]) was 160.87 and the EC50 (HCMV TRwt [3]; [15]) was 2.12 ± 0.14 µM. For the same compound, the EC90 (HCMV TRwt [3]; [16]) was 9.53 ± 0.76 µM, the CC50 at 5 days [4] was 192 ± 20.5 µM and the CC50 at 5 days [5] was 341 ± 20.1 µM.

Work on `CC(C)Nc1nc2cc(Cl)c(Cl)cc2n1[C@H]1O[C@@H](CO)[C@H](O)[C@@H]1O` [MBV, Maribavir] yielded an EC50 (HCMV TRwt [3]; [15]) of 4.74 µM.

Compound `COC(=O)C1=C(C)NC(C)=C(C(=O)OC(C)(C)CN(C)CCC(c2ccccc2)c2ccccc2)C1c1cccc([N+](=O)[O-])c1` (stereo not shown) [Lercanidipine, lercanidipine] has an EC50 (HCMV TRwt [1]) of 3.08 ± 0.28 µM, an EC90 (HCMV TRwt [1]) of 12.7 ± 1.6 µM and an SI (HCMV TRwt [1]) of 41.08. The “Ca2+-conducting activity of pUS21” value (pUS21) was “can hamper the Ca^2+-mobilizing activity of pUS21”, the EC50 (HCMV TRUS21stop; [7]) was 7.6 ± 0.11 µM and the EC90 (HCMV TRUS21stop; [9]) was 19.9 ± 0.5 µM. The SI (HCMV TRUS21stop; [10]) was 16.65, the SI (HCMV VR1814 [2]; [11]) was 105.86 and the EC50 (HCMV VR1814 [2]; [12]) was 2.7 ± 0.54 µM. The EC90 (HCMV VR1814 [2]; [13]) was 14.5 ± 0.19 µM, the EC50 (HCMV VR1814 [6]) was 3.12 ± 0.43 µM and the EC90 (HCMV VR1814 [6]) was 12.7 ± 1.66 µM. It also gave an SI (HCMV VR1814 [6]) of 40.55, an SI (HCMV TRwt [3]; [14]) of 86.09 and an EC50 (HCMV TRwt [3]; [15]) of 3.32 ± 0.38 µM. It also gave an EC90 (HCMV TRwt [3]; [16]) of 5.9 ± 0.11 µM, a CC50 at 5 days [4] of 127 ± 18.8 µM and a CC50 at 5 days [5] of 286 ± 19.1 µM.
